Measurements published in US20250230193A1, “CYCLIC COMPOUND HAVING SELECTIVE KRAS INHIBITORY EFFECT ON HRAS AND NRAS” (CHUGAI SEIYAKU KABUSHIKI KAISHA, priority 2022, published 2025).
*1 amine or outer side, *2 acyl side, *3 side chain or, on linkers, in order; H or OH if unused. Where a SMILES comes first, the peptide text is derived from it. Bridges are numbered along the chain shown (N, C = ends). [ ]: non-standard residue; d: D form. The star is where a group is joined. hPhe(3-Cl-4-CF3) = N[C@@H](CCc1ccc(C(F)(F)F)c(Cl)c1)C(=O)O; NEtPhe(4-CF3) = CCN[C@@H](Cc1ccc(C(F)(F)F)cc1)C(=O)O; NEtPhe(4-Me) = CCN[C@@H](Cc1ccc(C)cc1)C(=O)O; NMePhe(4-Me) = CN[C@@H](Cc1ccc(C)cc1)C(=O)O; X30 = CCN([C@H](C(=O)[*:2])C1CCCC1)[*:1]; NMeGly(cPent) = CN[C@H](C(=O)O)C1CCCC1; Hyp = O=C(O)[C@@H]1C[C@@H](O)CN1; NMeF = CN[C@@H](Cc1ccccc1)C(=O)O; NMeD = CN[C@@H](CC(=O)O)C(=O)O; NMeL = CN[C@@H](CC(C)C)C(=O)O; NMeV = CN[C@H](C(=O)O)C(C)C; Morpholide = C1CN(*)CCO1; NMeA = CN[C@@H](C)C(=O)O; Ac5c = NC1(C(=O)O)CCCC1; Aze = O=C(O)[C@@H]1CCN1; NPrGly = CCCNCC(=O)O; NEtG = CCNCC(=O)O; Sar = CNCC(=O)O

How the values were obtained:
[1] = biological target: GDP-bound NRAS wild-type protein (Homo sapiens, UniProt P01111); experiment: Binding to NRAS by surface plasmon resonance (SPR), Single Cycle Kinetics; conditions: KD ratio NRAS/KRAS, SPR
GDP-bound NRAS wild-type protein, sequence (P01111 whole entry): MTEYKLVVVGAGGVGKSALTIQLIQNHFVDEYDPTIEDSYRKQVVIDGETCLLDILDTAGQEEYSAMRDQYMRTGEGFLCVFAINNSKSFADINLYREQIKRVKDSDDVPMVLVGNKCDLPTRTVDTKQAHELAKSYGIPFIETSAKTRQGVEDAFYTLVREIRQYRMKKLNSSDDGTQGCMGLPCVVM

[2] = biological target: GDP-bound HRAS wild-type protein (Homo sapiens, UniProt P01112); experiment: Binding to HRAS by surface plasmon resonance (SPR), Single Cycle Kinetics; conditions: KD ratio HRAS/KRAS, SPR
GDP-bound HRAS wild-type protein, sequence (P01112 whole entry): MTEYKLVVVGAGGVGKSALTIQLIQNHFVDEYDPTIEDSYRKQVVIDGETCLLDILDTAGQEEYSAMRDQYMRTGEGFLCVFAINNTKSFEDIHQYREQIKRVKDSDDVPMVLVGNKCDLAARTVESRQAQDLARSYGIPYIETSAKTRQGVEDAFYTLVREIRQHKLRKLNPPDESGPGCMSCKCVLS

Row | Structure (SMILES) | NRAS/KRAS (ratio of KD for GDP-bound NRAS wild-type to KD for KRAS) [1] | HRAS/KRAS (ratio of KD for GDP-bound HRAS wild-type to KD for KRAS) [2]
1 | CC[C@H](C)[C@@H]1NC(=O)[C@H](CC(C)C)N(C)C(=O)C[C@@H](C(=O)N2CCOCC2)N(C)C(=O)[C@H](C2CCCC2)N(C)C(=O)C2(CCCC2)NC(=O)[C@@H]2CCCN2C(=O)[C@H](CCc2ccc(C(F)(F)F)c(Cl)c2)NC(=O)CN(C)C(=O)[C@H](Cc2ccc(C(F)(F)F)cc2)N(CC)C(=O)[C@@H]2CCN2C(=O)[C@H](C)N(C)C1=O [PP0002] ([NMeL]I[NMeA][Aze][NEtPhe(4-CF3)][Sar][hPhe(3-Cl-4-CF3)]P[Ac5c][NMeGly(cPent)][NMeD]-Morpholide; lactam N-11) | C (A compound having a KD ratio of 0.1 or more and less than 3 is denoted as C) | C (A compound having a KD ratio of 0.1 or more and less than 3 is denoted as C)
2 | CC[C@H](C)[C@@H]1NC(=O)[C@H](CC(C)C)N(C)C(=O)C[C@@H](C(=O)N2CCOCC2)N(C)C(=O)[C@H](C2CCCC2)N(C)C(=O)C2(CCCC2)NC(=O)[C@@H]2CCCN2C(=O)[C@H](CCc2ccc(C(F)(F)F)c(Cl)c2)NC(=O)CN(C)C(=O)[C@H](C2CCCC2)N(CC)C(=O)[C@@H]2CCN2C(=O)[C@H](C)N(C)C1=O [PP0003] ([NMeL]I[NMeA][Aze][X30][Sar][hPhe(3-Cl-4-CF3)]P[Ac5c][NMeGly(cPent)][NMeD]-Morpholide; lactam N-11) | C (A compound having a KD ratio of 0.1 or more and less than 3 is denoted as C) | C (A compound having a KD ratio of 0.1 or more and less than 3 is denoted as C)
3 | CC[C@H](C)[C@@H]1NC(=O)[C@H](CC(C)C)N(C)C(=O)C[C@@H](C(=O)N2CCOCC2)N(C)C(=O)[C@H](C2CCCC2)N(C)C(=O)C2(CCCC2)NC(=O)[C@@H]2CCCN2C(=O)[C@H](CCc2ccc(C(F)(F)F)c(Cl)c2)NC(=O)CN(CC)C(=O)[C@H](Cc2ccc(C)cc2)N(C)C(=O)[C@@H]2CCN2C(=O)[C@H](C)N(C)C1=O [PP0004] ([NMeL]I[NMeA][Aze][NMePhe(4-Me)][NEtG][hPhe(3-Cl-4-CF3)]P[Ac5c][NMeGly(cPent)][NMeD]-Morpholide; lactam N-11) | C (A compound having a KD ratio of 0.1 or more and less than 3 is denoted as C) | C (A compound having a KD ratio of 0.1 or more and less than 3 is denoted as C)
4 | CC[C@H](C)[C@@H]1NC(=O)[C@H](CC(C)C)N(C)C(=O)C[C@@H](C(=O)N2CCOCC2)N(C)C(=O)[C@H](C2CCCC2)N(C)C(=O)C2(CCCC2)NC(=O)[C@@H]2CCCN2C(=O)[C@H](CCc2ccc(C(F)(F)F)c(Cl)c2)NC(=O)CN(CC)C(=O)[C@H](Cc2ccc(C)cc2)N(CC)C(=O)[C@@H]2CCN2C(=O)[C@H](C)N(C)C1=O [PP0006] ([NMeL]I[NMeA][Aze][NEtPhe(4-Me)][NEtG][hPhe(3-Cl-4-CF3)]P[Ac5c][NMeGly(cPent)][NMeD]-Morpholide; lactam N-11) | C (A compound having a KD ratio of 0.1 or more and less than 3 is denoted as C) | C (A compound having a KD ratio of 0.1 or more and less than 3 is denoted as C)
5 | CC[C@H](C)[C@@H]1NC(=O)[C@H](C)N(C)C(=O)C[C@@H](C(=O)N2CCOCC2)N(C)C(=O)[C@H](C2CCCC2)N(C)C(=O)C2(CCCC2)NC(=O)[C@@H]2CCCN2C(=O)[C@H](CCc2ccc(C(F)(F)F)c(Cl)c2)NC(=O)CN(C)C(=O)[C@H](Cc2ccc(C)cc2)N(CC)C(=O)[C@@H]2CCN2C(=O)[C@H](C)N(C)C1=O [PP0007] ([NMeA]I[NMeA][Aze][NEtPhe(4-Me)][Sar][hPhe(3-Cl-4-CF3)]P[Ac5c][NMeGly(cPent)][NMeD]-Morpholide; lactam N-11) | C (A compound having a KD ratio of 0.1 or more and less than 3 is denoted as C) | C (A compound having a KD ratio of 0.1 or more and less than 3 is denoted as C)
6 | CC[C@H](C)[C@@H]1NC(=O)[C@H](CC(C)C)N(C)C(=O)C[C@@H](C(=O)N2CCOCC2)N(C)C(=O)[C@H](C2CCCC2)N(C)C(=O)C2(CCCC2)NC(=O)[C@@H]2CCCN2C(=O)[C@H](CCc2ccc(C(F)(F)F)c(Cl)c2)NC(=O)CN(C)C(=O)[C@H](Cc2ccccc2)N(C)C(=O)[C@@H]2CCN2C(=O)[C@H](C)N(C)C1=O [PP0011] ([NMeL]I[NMeA][Aze][NMeF][Sar][hPhe(3-Cl-4-CF3)]P[Ac5c][NMeGly(cPent)][NMeD]-Morpholide; lactam N-11) | C (A compound having a KD ratio of 0.1 or more and less than 3 is denoted as C) | C (A compound having a KD ratio of 0.1 or more and less than 3 is denoted as C)
7 | CC[C@H](C)[C@@H]1NC(=O)[C@H](CC(C)C)N(C)C(=O)C[C@@H](C(=O)N2CCOCC2)N(C)C(=O)[C@H](C2CCCC2)N(C)C(=O)C2(CCCC2)NC(=O)[C@@H]2C[C@@H](O)CN2C(=O)[C@H](CCc2ccc(C(F)(F)F)c(Cl)c2)NC(=O)CN(C)C(=O)[C@H](Cc2ccc(C)cc2)N(CC)C(=O)[C@@H]2CCN2C(=O)[C@H](C)N(C)C1=O [PP0013] ([NMeL]I[NMeA][Aze][NEtPhe(4-Me)][Sar][hPhe(3-Cl-4-CF3)][Hyp][Ac5c][NMeGly(cPent)][NMeD]-Morpholide; lactam N-11) | C (A compound having a KD ratio of 0.1 or more and less than 3 is denoted as C) | C (A compound having a KD ratio of 0.1 or more and less than 3 is denoted as C)
8 | CCO[C@@H]1C[C@H]2C(=O)NC3(CCCC3)C(=O)N(C)[C@@H](C3CCCC3)C(=O)N(C)[C@H](C(=O)N3CCOCC3)CC(=O)N(C)[C@@H](CC(C)C)C(=O)N[C@@H]([C@@H](C)CC)C(=O)N(C)[C@@H](C)C(=O)N3CC[C@H]3C(=O)N(CC)[C@@H](Cc3ccc(C)cc3)C(=O)N(C)CC(=O)N[C@@H](CCc3ccc(C(F)(F)F)c(Cl)c3)C(=O)N2C1 [PP0014] ([NMeL]I[NMeA][Aze][NEtPhe(4-Me)][Sar][hPhe(3-Cl-4-CF3)][Hyp](Et)[Ac5c][NMeGly(cPent)][NMeD]-Morpholide; lactam N-11) | C (A compound having a KD ratio of 0.1 or more and less than 3 is denoted as C) | C (A compound having a KD ratio of 0.1 or more and less than 3 is denoted as C)
9 | CC[C@H](C)[C@@H]1NC(=O)[C@H](CC(C)C)N(C)C(=O)C[C@@H](C(=O)N2CCOCC2)N(C)C(=O)[C@H](C(C)C)N(C)C(=O)C2(CCCC2)NC(=O)[C@@H]2CCCN2C(=O)[C@H](CCc2ccc(C(F)(F)F)c(Cl)c2)NC(=O)CN(C)C(=O)[C@H](Cc2ccc(C)cc2)N(CC)C(=O)[C@@H]2CCN2C(=O)[C@H](C)N(C)C1=O [PP0015] ([NMeL]I[NMeA][Aze][NEtPhe(4-Me)][Sar][hPhe(3-Cl-4-CF3)]P[Ac5c][NMeV][NMeD]-Morpholide; lactam N-11) | C (A compound having a KD ratio of 0.1 or more and less than 3 is denoted as C) | C (A compound having a KD ratio of 0.1 or more and less than 3 is denoted as C)
10 | CC[C@H](C)[C@@H]1NC(=O)[C@H](CC(C)C)N(C)C(=O)C[C@@H](C(=O)N2CCOCC2)N(C)C(=O)[C@H](CC(C)C)N(C)C(=O)C2(CCCC2)NC(=O)[C@@H]2CCCN2C(=O)[C@H](CCc2ccc(C(F)(F)F)c(Cl)c2)NC(=O)CN(C)C(=O)[C@H](Cc2ccc(C)cc2)N(CC)C(=O)[C@@H]2CCN2C(=O)[C@H](C)N(C)C1=O [PP0016] ([NMeL]I[NMeA][Aze][NEtPhe(4-Me)][Sar][hPhe(3-Cl-4-CF3)]P[Ac5c][NMeL][NMeD]-Morpholide; lactam N-11) | C (A compound having a KD ratio of 0.1 or more and less than 3 is denoted as C) | C (A compound having a KD ratio of 0.1 or more and less than 3 is denoted as C)
11 | CC[C@H](C)[C@@H]1NC(=O)[C@H](CC(C)C)N(C)C(=O)C[C@@H](C(=O)N2CCOCC2)N(C)C(=O)[C@H](C2CCCC2)N(C)C(=O)C2(CCCC2)NC(=O)[C@@H]2CCCN2C(=O)[C@H](CCc2ccc(C(F)(F)F)c(Cl)c2)NC(=O)CN(C)C(=O)[C@H](Cc2ccc(C)cc2)N(C)C(=O)CN(C)C(=O)CN(C)C1=O [PP0018] ([NMeL]I[Sar][Sar][NMePhe(4-Me)][Sar][hPhe(3-Cl-4-CF3)]P[Ac5c][NMeGly(cPent)][NMeD]-Morpholide; lactam N-11) | C (A compound having a KD ratio of 0.1 or more and less than 3 is denoted as C) | C (A compound having a KD ratio of 0.1 or more and less than 3 is denoted as C)
12 | CC[C@H](C)[C@@H]1NC(=O)[C@H](CC(C)C)N(C)C(=O)C[C@@H](C(=O)N2CCOCC2)N(C)C(=O)[C@H](C2CCCC2)N(C)C(=O)C2(CCCC2)NC(=O)[C@@H]2CCCN2C(=O)[C@H](CCc2ccc(C(F)(F)F)c(Cl)c2)NC(=O)CN(C)C(=O)[C@H](Cc2ccc(C)cc2)N(C)C(=O)CN(CC)C(=O)CN(C)C1=O [PP0019] ([NMeL]I[Sar][NEtG][NMePhe(4-Me)][Sar][hPhe(3-Cl-4-CF3)]P[Ac5c][NMeGly(cPent)][NMeD]-Morpholide; lactam N-11) | C (A compound having a KD ratio of 0.1 or more and less than 3 is denoted as C) | C (A compound having a KD ratio of 0.1 or more and less than 3 is denoted as C)
13 | CCCN1CC(=O)N(C)[C@@H](Cc2ccc(C)cc2)C(=O)N(C)CC(=O)N[C@@H](CCc2ccc(C(F)(F)F)c(Cl)c2)C(=O)N2CCC[C@H]2C(=O)NC2(CCCC2)C(=O)N(C)[C@@H](C2CCCC2)C(=O)N(C)[C@H](C(=O)N2CCOCC2)CC(=O)N(C)[C@@H](CC(C)C)C(=O)N[C@@H]([C@@H](C)CC)C(=O)N(C)CC1=O [PP0020] ([NMeL]I[Sar][NPrGly][NMePhe(4-Me)][Sar][hPhe(3-Cl-4-CF3)]P[Ac5c][NMeGly(cPent)][NMeD]-Morpholide; lactam N-11) | C (A compound having a KD ratio of 0.1 or more and less than 3 is denoted as C) | C (A compound having a KD ratio of 0.1 or more and less than 3 is denoted as C)
